Experimental data from paper PMC7524867, “Identification of Novel Inhibitors of a Plant Group A Protein Phosphatase Type 2C Using a Combined In Silico and Biochemical Approach” (Frontiers in Plant Science, 2020).
Each block holds one compound with its values, some of them ahead of it.

Legend:
Assay type in all cases: biochemical
[1] = molecular target: T1, ABI1 (Arabidopsis thaliana, UniProt P49597); assay: Ser/Thr phosphatase assay, single dose […]; set-up: His-ABI1
T1 sequence (P49597 1-434): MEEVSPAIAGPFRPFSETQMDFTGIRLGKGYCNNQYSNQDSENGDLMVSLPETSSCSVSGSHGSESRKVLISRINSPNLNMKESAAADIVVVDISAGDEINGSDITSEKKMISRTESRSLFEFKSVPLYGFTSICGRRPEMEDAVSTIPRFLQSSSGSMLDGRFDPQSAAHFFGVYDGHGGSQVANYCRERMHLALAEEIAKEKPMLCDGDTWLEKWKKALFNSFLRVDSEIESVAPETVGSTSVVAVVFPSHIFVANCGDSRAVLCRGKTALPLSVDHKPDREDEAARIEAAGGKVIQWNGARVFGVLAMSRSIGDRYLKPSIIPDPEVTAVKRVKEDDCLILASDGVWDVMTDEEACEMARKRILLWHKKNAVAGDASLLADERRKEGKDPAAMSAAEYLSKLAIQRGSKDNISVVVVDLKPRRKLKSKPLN

[2] = molecular target: T1, ABI1; assay: Ser/Thr phosphatase assay, single dose […]; set-up: recombinant His- or GST-tagged ABI1
[3] = molecular target: T2, ABI2 (Arabidopsis thaliana, UniProt O04719); assay: Ser/Thr phosphatase assay at […] compound; weaker than on ABI1
T2 construct: recombinant His- or GST-tagged ABI2
T2 sequence (O04719 1-423): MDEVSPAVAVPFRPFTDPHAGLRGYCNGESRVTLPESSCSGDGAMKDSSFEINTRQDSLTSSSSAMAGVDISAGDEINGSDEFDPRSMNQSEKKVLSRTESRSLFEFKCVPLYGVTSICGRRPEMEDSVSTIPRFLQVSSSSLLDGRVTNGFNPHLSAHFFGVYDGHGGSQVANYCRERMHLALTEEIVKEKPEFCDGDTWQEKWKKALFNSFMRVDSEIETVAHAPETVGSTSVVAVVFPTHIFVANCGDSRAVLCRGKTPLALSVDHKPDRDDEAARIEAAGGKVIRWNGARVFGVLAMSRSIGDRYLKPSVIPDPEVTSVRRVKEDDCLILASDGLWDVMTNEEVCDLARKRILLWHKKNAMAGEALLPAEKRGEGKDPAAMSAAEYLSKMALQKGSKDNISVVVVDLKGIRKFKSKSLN

[4] = molecular target: T1, ABI1; assay: Ser/Thr phosphatase assay (Promega) with phosphopeptide substrate, six-concentration IC50; set-up: recombinant His- or GST-tagged ABI1

Compound: COC(=O)c1ccccc1NC(=O)Nc1cc(NC(=O)c2ccc(F)cc2)ccc1N1CCCC1 [ZINC33009768]
Ser/Thr phosphatase assay, single dose 100 μM [1]: Only two molecules ZINC33009768 and ZINC09438755 were found to have significant inhibitory activity

% inhibition at 100 μM [2]: 42.6
Compound: ZINC04545840

Compound: COc1cccc(-n2cc(C(=O)Nc3cc(C)ccc3OC)c3ccccc3c2=O)c1 [ZINC09438755]
Ser/Thr phosphatase assay, single dose 100 μM [1]: Only two molecules ZINC33009768 and ZINC09438755 were found to have significant inhibitory activity

IC50 [4]: 54 ± 8 µM
Compound: NCCOc1cc(C(=O)Nc2cc(OCCN)c3ccccc3n2)nc(C(=O)Nc2cc(OCCN)c3ccccc3n2)c1 [ZINC59151964, 4-(2-aminoethoxy)-N2,N6-bis[4-(2-aminoethoxy)-2-quinolinyl]-2,6-pyridinedicarboxamide]
Ser/Thr phosphatase assay at 100 μM compound; weaker than on ABI1 [3]: ZINC59151964 is more efficient against ABI1 than ABI2
